This is an account of results in patent US10139420B2, “Methods for treating vaso-occlusive crisis using non-modified annexin V” (ISNERM (Institut National de la Sante et de la Recherche …, priority 2011, dated 2018).

Entries after “also recorded” stand apart in the source; their conditions may differ.

Experiment [1] concerns wild type mouse erythrocytes. Description: Echinocyte conversion and MP shedding by isolated erythrocytes (LORCA ektacytometer, microscopy, FACS), wild type. Format: cell-based. Particulars: for increase in MP shedding in wild type erythrocytes: peptides 25 μM, versus control peptides. Here is the method: (§1) Mouse blood was obtained through retro-orbital sinus puncture, mixed with anti-coagulant heparin buffer (5 UI/ml), and collected on citrated tubes. Blood diluted 1:1 with PBS (Gibco-Life Sciences) was placed onto histopaque-1083 (Sigma) density gradients for centrifugation (600 g, 25 minutes). Erythrocyte pellets were resuspended, washed in DMEM and stored for up to 4 hours at room temperature. Erythrocyte surface CD47 expression was assessed by FACS. Fresh RBC were washed and blocked with PBS-BSA 5% for 30 min and immunoreacted with mouse-specific fluoroisothiocyanate (FITC)-coupled anti-CD47 monoclonal antibody (clone mIAP301; BD Biosciences, Le Pont de Claix, France), or matched irrelevant IgG2aκ isotype for 45 min in 2% PBS-BSA. Erythrocytes were washed in PBS-BSA 2% prior to FACS analysis. Erythrocyte phenotypes were analyzed by […] electronic microscopy. Briefly, mouse erythrocytes were fixed with glutaraldehyde 1% and paraformaldehyde 4%, dehydrated and embedded in Epon™ epoxy resin. Sections contrasted with uranyl acetate and lead citrate were examined with a JEOL JEM 1010 microscope. Average apparent spicule number was determined by direct counting in 80 to 120 cells per condition.
(§2) To trigger MP shedding, erythrocyte were suspended in polyvinylpyrrolidone (31 mPa.s) and placed in a rotating type LORCA ektacytometer (R&R Mechatronics, Hoorn, The
(§3) Netherlands) in the absence or presence of TSP1 (25 μg/ml), or TSP1-derived peptides 4N1-1 or 4N1-2 (25 μM). Shear rate was applied according to the builder's program (1500 s^−1; 2.5 minutes). Erythrocytes were immediately separated and supernatant PS^+ MP quantified by FACS. Concentrated MP stocks were generated from 10 to 20 ml of supernatant from erythrocytes suspended in RPMI-1640 (4.10^6/ml) and treated with 4N1-1. Suspensions were centrifuged at 400 g for 15 min to discard cells, and ultracentrifuged at 20500 g for 45 min to pellet MP, which were resuspended in filtered (0.2 μm) DMEM and stored at −80° C. MP concentrations were determined as previously described (20). Briefly, MP were labeled with 2 μl FITC-conjugated annexin-V (Roche Diagnostics, France) diluted in 100 μl reaction buffer with 5 mM CaCl2. CaCl2 was omitted in negative controls. MP were analyzed on a Coulter EPICS XL flow cytometer (Beckman Coulter). MP were identified in forward light scatter (FSc) and side-angle light scatter (SSc) intensity dot plots set at logarithmic gain, as events of 0.1-1 μm in diameter. MP-size events were analyzed in FL/FSC fluorescence dot plots to determine annexin-V labeling. MP concentration was determined with respect to calibrated fluorescent microbeads (Flowcount). To determine erythrocyte origin, MP were double labeled with rat PE-Cy7-coupled mouse-specific anti-Ter119 antibody (Biolegend via Ozyme, France), or matched irrelevant IgG2bκ isotype.

Another experiment has as its system SAD mice. The experiment is described as follows: Circulating PS+ MP in platelet-free plasma by FACS (annexin-V labeling), SAD mice. Format: in vivo, mouse. Particulars: injected to mice, compared with whole TSP1. As for the experimental part:
We characterized the induction of VOC in SAD transgenic mice (18, 19) according to our previously published method, in response to the intravenous administration of TSP1 (1 mg/kg), TSP1-derived peptides 4N1-1 or 4N1-2, or purified erythrocyte MP. Briefly, mice were anesthetized with isoflurane and monitored to prevent any cardiorespiratory depression. Mice were shaved and placed in the decubitus position on a heating blanket (38° C.). We used a Vivid 7 echograph (GE Medical Systems®, Horten, Norway) equipped with a 12-MHz linear transducer (12 L). […] A pulsed Doppler spectrum was recorded and peak systolic, end-diastolic and time-average mean BFV were measured in the renal artery, with Doppler beam angle correction. To calculate cardiac output, spatial flow profiles were analyzed in parasternal long-axis B-mode images of the pulmonary artery and BFV were measured as above. […] Circulating MP were quantified by FACS.
Netherlands) in the absence or presence of TSP1 (25 μg/ml), or TSP1-derived peptides 4N1-1 or 4N1-2 (25 μM). […] Erythrocytes were immediately separated and supernatant PS^+ MP quantified by FACS. […] MP concentrations were determined as previously described (20). […] MP were analyzed on a Coulter EPICS XL flow cytometer (Beckman Coulter). […] MP-size events were analyzed in FL/FSC fluorescence dot plots to determine annexin-V labeling. […]
For orientation: A flow cytometer gives signals particle by particle.

In another experiment the test system is SAD mouse erythrocytes. The experiment is described as follows: Echinocyte conversion and MP shedding by isolated erythrocytes (LORCA ektacytometer, microscopy, FACS), SAD. The class given is cell-based. Conditions: for raise in MP shedding in SAD erythrocytes: peptides 25 μM, versus control peptides. Here is the method:
as §1, §2, §3

Experiment [2] has as its system SV40-transformed mouse lymph node endothelial cells (SVEC4-10). Description: Endothelial ROS production (H2DFF-DA assay). Format: cell-based. Here is the method: SV40-transformed mouse lymph node endothelial cells (SVEC4-10 from ATCC) were obtained from LGC Promochem, France and grown in Dulbecco's Modified Eagle Medium (DMEM) supplemented with 20% neonatal calf serum (NCS; Dominique Dutscher) in 24 well plaques at 37° C. with 5% CO2. Confluent SVEC monolayers in 96 well plates were incubated with 25 MP/μl for up to 2 h. To determine ROS production, 5-(6-)Carboxy-2′,7′-difluorodihydrofluorescein diacetate (H2DFF-DA; 10 μM), was supplemented to the medium for the last 30 minutes, and fluorescence was read in an automated fluorescence plate reader. For erythrocyte adhesion experiments, MP-primed SVEC monolayers were washed and incubated with RBC suspensions in DMEM (1.10^6 RBC/ml). Supernatant cells were discarded after 30 min, and adherent cells were counted by phase contrast microscopy in 5 random fields per well (400×). All conditions were tested 3 to 6 times, in triplicates. In cell cycle analysis, SVEC were cultured up to 70% confluency, washed and placed in DMEM with 0.05% NCS with or without RBC MP. After 16 hours, SVEC were trypsinized, fixed overnight in ice-cold 70% ethanol-H20, and incubated in 0.05% Triton X100, 100 μg/ml RNase A plus 50 μg/ml propidium iodide for 1 h in the dark. Total DNA content was determined by FACS. DNA profiles were divided as sub-G1 (apoptosis), G0/G1 (resting) and G2/M (proliferation) phases of the cell cycle. Data shown is the mean percentage of cells in each phase, in 3 to 6 independent experiments.

The next experiment has as its system SAD transgenic mice. The experiment is described as follows: Vaso-occlusive crises in mice: renal artery blood flow velocity by Echo-Doppler, cardiac output, renal histology. The class given is in vivo, mouse. Conditions: SAD RBC MP pre-incubated with annexin-V and washed, 300.10^3 MP/mouse. As for the experimental part:
We characterized the induction of VOC in SAD transgenic mice (18, 19) according to our previously published method, in response to the intravenous administration of TSP1 (1 mg/kg), TSP1-derived peptides 4N1-1 or 4N1-2, or purified erythrocyte MP. Briefly, mice were anesthetized with isoflurane and monitored to prevent any cardiorespiratory depression. Mice were shaved and placed in the decubitus position on a heating blanket (38° C.). We used a Vivid 7 echograph (GE Medical Systems®, Horten, Norway) equipped with a 12-MHz linear transducer (12 L). The ultrasound probe was placed on the left side of the abdomen for examination of renal arteries, or in left lateral decubitus for cardiac output acquisition with transducer on the chest. Data were transferred on-line to an EchoPAC ultrasound image analysis workstation (GE Medical Systems®). Two-Dimensional ultrasound imaging of the abdomen in left-sided longitudinal B-mode allowed kidney width and height measurements. Color-coded blood flow detection by Doppler enabled renal arteries to be localized. A pulsed Doppler spectrum was recorded and peak systolic, end-diastolic and time-average mean BFV were measured in the renal artery, with Doppler beam angle correction. To calculate cardiac output, spatial flow profiles were analyzed in parasternal long-axis B-mode images of the pulmonary artery and BFV were measured as above. The following formula was applied: CO=[(V^mean·60)·(π·(Dpa/2^2)], where CO is the cardiac output in ml/minute, V^mean is the mean time-averaged BFV in cm/s and Dpa is the pulmonary artery diameter in cm. Kidney sizes and BFV were determined by the same investigator, as means of 5 to 8 measurements. Repeatability for cardiac output measurements was verified. We controlled and confirmed that kidney size was similar between SAD and wild type mice. After sacrifice, kidneys were dissected, dehydrated, mounted in paraffin, sectioned and stained by Masson trichrome. Vascular congestion was observed by phase-contrast microscopy, as large erythrocyte aggregates occluding kidney capillaries and larger vessels. In some experiments, TSP1 (1 mg/kg) or control BSA (1 mg/kg) were injected. After 5 minutes, mice were terminally anesthetized by pentobarbital overdose. Whole blood was collected through cardiac puncture, centrifuged (400 g, 15 minutes) to eliminate erythrocytes and leukocytes, and double centrifuged (12500 g, 5 minutes) to eliminate platelets with minimal activation. Supernatants were considered platelet-free plasma (PFP). Circulating MP were quantified by FACS.
We evaluated the concept that TSP1 influences VOC during SCD in vivo. We used SAD transgenic mice that express a mutated human hemoglobin β-chain known to cause sickle cell formation and sensitivity to VOC (18, 19).

[3] abbreviates: scanning electron microscopy, after peptide treatment.
The mark [4] stands for this setting: endothelial NOS blocked, L-NAME 100 μM, enantiomer D-NAME as control.
The mark [5] stands for this setting: endothelial PKC activity inhibited, 1 μM.

With “4N1-1: Synthetic TSP1 carboxyterminal peptide RFYVVMWK (SEQ ID NO:1), CD47 agonist (4N1-1)”, the “echinocytosis: change in wild type echinocytes” value in experiment [1] (peptide 25 μM) is on record as “doubling”. Besides, the “spicule numbers in healthy wild type erythrocytes” value in experiment [1] (setting [3]) is “not in healthy wild type erythrocytes”. In the experiment with SAD mice, the “effects on circulating PS+ MP after injection of the peptide” value is listed as “comparable to whole TSP1”. The “effect on sickle cells” value in the experiment on SAD mouse erythrocytes (SAD erythrocytes, TSP1 or peptide) is given as “did not affect sickle cells”. The “increase in spicule numbers in SAD RBC” value with SAD mouse erythrocytes (setting [3]) was 20%. Also, the “increase in SAD echinocytes” value in the experiment with SAD mouse erythrocytes (under shear, TSP1 (25 μg/ml) or peptide (25 μM), vs control) is on record as 50%. With “4N1-2: Synthetic truncated control peptide RFYVVM (SEQ ID NO:2) (4N1-2)”, the “increase in MP shedding in wild type erythrocytes” value in experiment [1] is “no effect”. In addition, the “raise in MP shedding in SAD erythrocytes” value in the experiment with SAD mouse erythrocytes was “no effect”. Regarding “4NGG: Mutated control peptide RFYGGMWK (SEQ ID NO:3) devoid of the VVM motif (4NGG)”, in experiment [1], the “increase in MP shedding in wild type erythrocytes” value is “no effect”. Also, the “raise in MP shedding in SAD erythrocytes” value in the experiment on SAD mouse erythrocytes is on record as “no effect”.

On to `COC(=O)[C@H](N)CCCN=C(N)N[N+](=O)[O-]` [D-NAME], for which, in experiment [2] (setting [4]), the “ROS generation induced by SAD RBC MP” value is listed as “had no effects”. For `c1ccc2c(c1)[I+]c1ccccc1-2` [DPI], in experiment [2] (endothelial NADPH oxydase blocked, 10 μM, 30 minutes), the “ROS generation induced by SAD RBC MP” value was “prevented”.

With `Cn1c2ccccc2c2c3c(c4c5ccccc5n(CCC#N)c4c21)C(=O)NC3` [Gö-6976], the “ROS generation induced by SAD RBC MP” value in experiment [2] (setting [5]) was “prevented”. Turning to `COC(=O)[C@@H](N)CCCNC(=N)N[N+](=O)[O-]` [L-NAME], the “ROS generation induced by SAD RBC MP” value in experiment [2] (setting [4]) is listed as “entirely inhibited”. With `Cn1cc(C2=C(c3cn(CCCSC(=N)N)c4ccccc34)C(=O)NC2=O)c2ccccc21` [Ro-31-8220], the “ROS generation induced by SAD RBC MP” value in experiment [2] (setting [5]) was “prevented”. Regarding `COc1cc(C(C)=O)ccc1O` [apocynin], the “ROS generation induced by SAD RBC MP” value in experiment [2] (endothelial NADPH oxydase blocked, 100 μM, 30 minutes) is recorded as “prevented”.

B1: annexin-V: Recombinant protein that binds externalized phosphatidylserine in a calcium dependent manner (protein, UniProt P08758 2-320, looked up)
Annexin A5: AQVLRGTVTDFPGFDERADAETLRKAMKGLGTDEESILTLLTSRSNAQRQEISAAFKTLFGRDLLDDLKSELTGKFEKLIVALMKPSRLYDAYELKHALKGAGTNEKVLTEIIASRTPEELRAIKQVYEEEYGSSLEDDVVGDTSGYYQRMLVVLLQANRDPDAGIDEAQVEQDAQALFQAGELKWGTDEEKFITIFGTRSVSHLRKVFDKYMTISGFQIEETIDRETSGNLEQLLLAVVKSIRSIPAYLAETLYYAMKGAGTDDHTLIRVMVSRSEIDLFNIRKEFRKNFATSLYSMIKGDTSGDYKKALLLLCGEDD
For the molecule B1, the “ROS generation induced by SAD RBC MP” value in experiment [2] (MP PS previously saturated with recombinant annexin-V, 1 μg/ml for 1 hour) is “entirely inhibited; also recorded: prevented”. Further, the “VOC parameters after injection of annexin-V-saturated SAD RBC MP” value is given as “failed to modify VOC parameters” in the experiment with SAD transgenic mice and “abrogated the induction of VOC” in the experiment with SAD transgenic mice (listed as Annexin-V).
